Assay results taken from ChEMBL document CHEMBL1131148, “Synthesis and modeling studies of a potent conformationally rigid muscarinic agonist: 1-azabicyclo[2.2.1]heptanespirofuranone” (J Med Chem, 1998).

Experiments:
Rattus norvegicus = species: Rattus norvegicus; test: Stimulation of phosphatidyl inositol(PI) hydrolysis as compared to that of carbachol, was determined in rat hippocampal slices; assay type: functional, Hippocampus
[1] = target: Muscarinic acetylcholine receptor; test: Binding affinity against Muscarinic acetylcholine receptor using [3H]-OXO-M as the radioligand.; assay type: protein assay, Rattus norvegicus

Row | Structure (SMILES) | Intrinsic activity (Rattus norvegicus) [%] | Ki [1] [nM]
1 | C[C@H]1OCC2(CN3CCC2C3)O1 (stereo not given in full) | 75 | 14
2 | CCC[C@H]1O[C@@]2(CC1=O)CN1CCC2C1 (stereo not given in full) | 0 | 2
3 | CC[C@H]1O[C@@]2(CC1=O)CN1CCC2C1 (stereo not given in full) | 39 | 3.7
4 | CC[C@@H]1O[C@@]2(CC1=O)CN1CCC2C1 (stereo not given in full) | 47 | 0.4
5 | CN1O[C@@]2(CC1=O)CN1CCC2C1 (stereo not given in full) | 22.6 | 4
6 | C[C@@H]1O[C@@]2(CC1=O)CN1CCC2C1 (stereo not given in full) | 81 | 0.8
7 | CCC[C@@H]1O[C@@]2(CC1=O)CN1CCC2C1 (stereo not given in full) | 0 | 2
8 | CC1OC2(CCN(C)CC2)CC1=O (stereo not given) | 51 | 6.7
9 | CC1O[C@@]2(CC1=O)CN1CCC2CC1 (stereo not given in full) | 9 | 
10 | Cc1noc(C2CN3CCC2C3)n1 (stereo not given) | 106 | 0.2
11 | C[N+](C)(C)CCOC(N)=O.[Cl-] [CARBACHOL] | 100 | 
